{"source": "patent US20260199464A1", "about": "“COMPOSITIONS AND METHODS FOR ENHANCING CAR-T CELL PERFORMANCE AND FOR CANCER IMMUNOTHERAPY” (The Regents of the University of California, priority 2022, published 2026)", "key": {"[1]": {"assay": "Dependence of antitumor actions of ZAA on the immune system (FIG. 6)", "format": "in vivo"}, "[2]": {"tested_on": "B16-F10 tumors", "assay": "ZAA combined with anti-PD1 antibody, B16-F10 tumors implanted s.c. in B6 mice (FIG. 7, FIG. 8)", "format": "in vivo", "experimental": "FIG. 7 graphically illustrates data showing that tumor Growth Curves in B16-F10 tumors implanted subcutaneously (s.c.) in B6 mice. Tumor-bearing mice were treated with a combination of Zaragozic Acid A and anti-PD1 antibody.\nFIG. 8 graphically illustrates data showing that ZAA synergizes with anti-PD1 therapy. Tumor-bearing mice were treated with a combination of Zaragozic Acid A and anti-PD1 antibody.\nAt day 6 after tumor injection, the mice were randomized and treated every other day with ZAA (Santa Cruz Biotechnology) or vehicle control by alternating intravenous ([…]) and intraperitoneal ([…]) injections until day 16. For combination therapy with anti-PD1 (programmed cell death protein 1 (PD-1)) antibody, ZAA was administered with the same schedule, and three consecutive treatments of anti-PD1 (InVivoMab anti-mouse PD-1 (CD279), BioXCell, BE0033-2) at 200 μg/mouse were delivered IP on days 9, 10, and 11 after tumor injection. Isotype control for Syrian IgG was used (InVivoMAb polyclonal Syrian hamster IgG, BioXCell). For CD8-depleting experiments in combination with ZAA, anti-CD8a Ab (2.43 BioXCell) was administered intraperitoneally at a dose of 200 μg/mouse starting 2 days prior to tumor implantation for three consecutive days (−2, −1, 0), followed by 2 additional doses of 100 μg/mouse on days 4 and 8, and ZAA treatment scheduled was started at day 4 after tumor implantation. Isotype control for Rat IgG2 was used (InVivoMAb rat IgG2a isotype control, anti-trinitrophenol, BioXCell)."}, "[3]": {"tested_on": "CD19 CAR T cell", "assay": "ZAA combined with CD19 CAR T cell treatment of established solid tumors (FIG. 9)", "format": "in vivo, mice", "text": "FIG. 9 graphically illustrates data showing that ZAA can be combined with CAR T cell treatment of established solid tumors to increase the ability of CAR T cells to accumulate intratumorally. Tumor-bearing mice received tumor-specific CAR T cells in combination with Zaragozic Acid A. Tumor cells contained the surface protein CD19, which is recognized by the CAR anti-CD19 on the CD8 T cell (CD19 CAR T cell)."}, "[4]": {"tested_on": "B16-GP33-41 melanoma tumors", "assay": "ZAA combined with anti-PD-1 in B16-GP33-41 melanoma tumors", "format": "in vivo, mice", "conditions": "ZAA combined with anti-PD-1 treatment", "text": "(§1) For adoptive therapy experiments, 5×10^5 B16-GP33-41 cells or MC38-GP33-41, which were verified Mycoplasma negative by PCR, and authenticated by in vitro killing assays, were transplanted subcutaneously into the right flank of wild-type B6 mice. After tumors became palpable, 7-8 days after transplantation, in vitro activated and expanded P14 CD8 T cells were transferred intravenously. For comparison of TIL accumulation in a mixed transfer setting, naive P14 CD8 T cells were activated, transduced and expanded with 50 U/mL of hIL-2 for 2-3 days; cells transduced with control constructs (Cd19 shRNAmir) or experimental constructs (Srebf2 shRNAmir) were mixed 1:1 and 1×10^6 P14 cells were transferred intravenously. For efficacy studies, transduced cells were expanded for 5-6 days; transduced cells were then sorted, and 1×10^6-2.5×10^6 cells were transferred intravenously into mice with established MC38-GP33-41 or B16-GP33-41 tumors. Tumors were monitored daily, and mice with ulcerated tumors or tumors exceeding 400 mm^2 were euthanized, in accordance with Univ. Calif. San Diego (UCSD) Institutional Animal Care and Use Committee (IACUC).\nAt day 6 after tumor injection, the mice were randomized and treated every other day with ZAA (Santa Cruz Biotechnology) or vehicle control by alternating intravenous ([…]) and intraperitoneal ([…]) injections until day 16. […]"}, "[5]": {"tested_on": "MC38-GP33-41 tumors", "assay": "ZAA treatment of mice implanted with MC38-GP33-41 tumors, with or without CD8 T cell depletion", "format": "in vivo", "text": "as §1\nAt day 6 after tumor injection, the mice were randomized and treated every other day with ZAA (Santa Cruz Biotechnology) or vehicle control by alternating intravenous ([…]) and intraperitoneal ([…]) injections until day 16. For combination therapy with anti-PD1 (programmed cell death protein 1 (PD-1)) antibody, ZAA was administered with the same schedule, and three consecutive treatments of anti-PD1 (InVivoMab anti-mouse PD-1 (CD279), BioXCell, BE0033-2) at 200 μg/mouse were delivered IP on days 9, 10, and 11 after tumor injection. Isotype control for Syrian IgG was used (InVivoMAb polyclonal Syrian hamster IgG, BioXCell). […]"}, "[6]": {"tested_on": "P14 CD8 T cells", "format": "in vivo, mice"}, "[7]": {"conditions": "combination of Zaragozic Acid A and anti-PD1 antibody, B16-F10 s.c."}, "[8]": {"conditions": "ZAA vs vehicle, MC38-GP33-41 tumors"}}, "data": [{"molecule": "C=C(CCC12O[C@H](C(=O)O)[C@@](O)(C(=O)O)C(C(=O)O)(O1)[C@H](OC(=O)/C=C/[C@@H](C)C[C@@H](C)CC)[C@H]2O)[C@@H](OC(C)=O)[C@H](C)Cc1ccccc1", "note": "(stereo partly shown) [ZAA, zaragozic acid A]", "values": [{"measurement": "antitumor actions, dependence on the immune system", "setting": "[1]", "result": "depend on the immune system"}, {"measurement": "interaction with anti-PD1 therapy", "setting": "[2]; FIG. 8, independent tumor growth curves from FIG. 7", "result": "synergizes"}, {"measurement": "treatment of established tumors, efficacy of the combination", "setting": "[2]; [7]", "result": "effectively"}, {"measurement": "treatment of established tumors, safety of the combination", "setting": "[2]; [7]", "result": "safely"}, {"measurement": "interaction with CD19 CAR T cell therapy", "setting": "[3]; FIG. 9", "result": "synergizes"}, {"measurement": "ability of CAR T cells to accumulate intratumorally", "setting": "[3]; tumor-specific CD19 CAR T cells in combination with ZAA, CD19-bearing tumor cells", "result": "increase"}, {"measurement": "control of B16-GP33-41 melanoma tumors", "setting": "[4]", "result": "greater control"}, {"measurement": "dependence of the antitumor effect on CD8 T cells", "setting": "[5]; ZAA in combination with CD8 T cell depletion", "result": "CD8-dependent"}, {"measurement": "survival of mice", "setting": "[5]; [8]", "result": "improved"}, {"measurement": "tumor growth", "setting": "[5]; [8]", "result": "reduced"}]}, {"molecule": "CC[C@H](C)C(=O)O[C@H]1C[C@@H](C)C=C2C=C[C@H](C)[C@H](CC[C@@H]3C[C@@H](O)CC(=O)O3)[C@H]21", "note": "[lovastatin]", "values": [{"measurement": "accumulation of P14 CD8 T cells responding to LCMV in the SI", "setting": "[6]; day 7 of infection, compared to the control group (vehicle)", "result": "impaired"}, {"measurement": "SI TRM", "setting": "[6]; day 21 after LCMV infection", "result": "sustained loss"}, {"measurement": "accumulation of memory T cells in the spleen", "setting": "[6]; day 21 after LCMV infection", "result": "impaired accumulation"}]}]}
